US4200650A, “2-Amino-cyclopent-1-ene-1-thiocarboxylic acid-disulfides to treat noradrenergic malfunctions” (Richter Gedeon Vegyeszeti Gyar Rt., priority 1976, dated 1980)

Columns and labels:
dopamine-β-hydroxylase [1] = experiment: Determination of noradrenaline and dopamine levels of brain (dopamine-β-hydroxylase inhibiting effect); assay type: in vivo, male Wistar rats; conditions: i.p., 4 hours
Description: (§1) The dopamine-β-hydroxylase inhibiting effects of the new compounds according to the invention were examined by the following tests:
(§2) The tests were performed on male Wistar rats weighing 150 to 200 g. The dopamine-β-hydroxylase inhibiting effects of the compounds were evaluated by determining the change of noradrenaline, dopamine and adrenaline levels of the cerebrum, heart, spleen and adrenal gland. The serotonine and 5-hydroxy-indolylacetic acid levels of the cerebrum were also determined. The measurements were performed as follows:
(§3) The animals were decapitated, the cerebrum, heart, spleen and adrenal gland were removed quickly, and the organs were frozen by placing them onto a metal sheet cooled with dry ice. The frozen organs were stored for maximum one night at -20° C.
(§4) Determination of the noradrenaline, dopamine, serotonine and 5-hydroxy-indolylacetic acid contents of brain
The brains were homogenized in 10 parts by volume of 0.4 n perchloric acid. The homogenized mixture was stored at -20° C. overnight, thereafter it was thawed and centrifuged as described above. A sample of the homogenized mixture corresponding to 0.5 g of brain was removed, the pH of the sample was adjusted to 8.0±0.1 with 0.1 molar tris-buffer of the above composition, and the sample was processed as described above for the determination of the noradrenaline content of heart and spleen, with the difference that 1.5 ml of 0.05 n perchloric acid were applied as eluting agent. 0.5 ml of the eluate were applied to determine the noradrenaline and dopamine contents. The measurement was performed as described above, with the difference that samples of 0.5 ml were applied for the recording of the fluorescency of noradrenaline. The residua was placed for 50 minutes into a drying oven heated to 100° C., thereafter the sample was cooled with ice water, and the fluorescency of dopamine was recorded at wavelengths of 325 nm (excitation) and 380 nm (emission).
(§5) In a further test series the serotonine and 5-hydroxy-indolylacetic acid contents were also determined, beside the determination of the noradrenaline and dopamine content, from the same sample. In this instance the brains were homogenized in 10 ml of 75% ethanol, 0.2 ml of EDTA-Na2 and 5% of ascorbic acid were added to the homogenized mixtures, and the homogenized mixtures were maintained at -20° C. overnight. The mixtures were centrifuged as described above, and 5.0 ml samples of the supernatant were removed. The samples were diluted with equal volumes of distilled water, and poured onto ion exchange columns of 0.5×1.5 cm dimensions, filled with buffered Amberlite CG-30 (200 to 400 mesh). The columns were washed with 5 ml of distilled water followed by 1.0 ml of 0.2 n hydrochloric acid, and the first effluent and the aqueous wash were collected for the determination of 5-hydroxy-indolylacetic acid. Elution was continued with further 1.2 ml of 0.2 n hydrochloric acid in order to remove noradrenaline, dopamine and serotonine. Samples of 0.3 ml were used for the determinations.
(§6) Noradrenaline and dopamine were determined by the method of Shellenberger, modified as described above, whereas serotonine was determined by the method of Curzon et al. (Brit. J. Pharmacol. 39, 653/1970/). The basic method was modified as follows: A 0.5% solution of ortho-phthal(di)aldehyde in absolute ethanol was diluted with 10 n hydrochloric acid to 50-fold of its original volume, and 0.6 ml of the resulting 0.01% ortho-phthal(di)aldehyde solution were added immediately to 0.5 ml of the serotonine-containing sample. The sample was placed into a hot water bath for 10 minutes, thereafter cooled with tap water, and the fluorescency was recorded at wavelengths of 360 nm (excitation) and 490 nm (emission).
In the tests disulfiram, 2,2-dipyridyl, bis(1-methyl-4-homopiperazinyl-thriocaronyl)-disulfide, sodium diethyldithiocarbamate and N-phenyl-N'-(2-thiazolyl)-thiourea were applied as reference substances. […]

[2] = system: serotonine and 5-hydroxy-indolylacetic acid levels of the cerebrum; experiment: Determination of serotonine and 5-hydroxy-indolylacetic acid levels of brain; assay type: in vivo, male Wistar rats; conditions: i.p., 4 hours
Description: as §2, §3, §4, §5, §6
5-Hydroxy-indolylacetic acid was determined from the mixture of the first effluent and the aqueous wash. 10 ml of distilled water and 0.2 ml of concentrated hydrochloric acid were added to the mixture, and the sample was poured onto a 0.8×4.0 cm column filled with Sephadex G-10. The column was washed with 15 ml of 0.1 n hydrochloric acid followed by 1.8 to 2.0 ml of 0.02 n aqueous ammonia, and then 5-hydroxyindolylacetic acid was eluted with further 2.0 ml of aqueous ammonia. 0.5 ml samples were used in the measurements, and the determination was performed according to the method of Korf et al. (Biochem. Pharmacol. 20, 659/1971/).
(§7) In the tests disulfiram, 2,2-dipyridyl, bis(1-methyl-4-homopiperazinyl-thriocaronyl)-disulfide, sodium diethyldithiocarbamate and N-phenyl-N'-(2-thiazolyl)-thiourea were applied as reference substances. The values indicated in Table 1 are the percentages in relation to the amine levels of the controls measured in the same tests (± standard error). The statistical calculations were performed on a TPA/i type computer, using Student's t test.

dopamine-β-hydroxylase [3] = experiment: Determination of the noradrenaline content of heart; assay type: in vivo, male Wistar rats; conditions: i.p., 4 hours
Description: as §1, §2, §3
(§8) Determination of the noradrenaline content of heart and spleen
(§9) The organs were weighed in frozen state and then homogenized in 5.0 ml of 0.4 n perchloric acid containing 0.05% of EDTA-Naa and 0.1% of Na2 S2 O5. The homogenized mixtures were centrifuged as described above for the treatment of adrenal gland, the supernatants were decanted, and the pH was adjusted to 8.0±0.1 with a 0.1 molar tris buffer containing 20 g/l of NaOH and 25 g/l of EDTA-Na2. 100 mg of prepared Al2 O3 (Anton et al.: J. Pharm. Ther. 138, 360/1962/) were added to the samples, and the mixtures were shaken mechanically for 20 minutes. Thereafter Al2 O3 was washed with 2×10 ml of distilled water, and noradrenaline was eluted with 1.0 ml of 0.05 n perchloric acid. 0.5 ml samples of the eluate were applied for the determination of noradrenaline. Noradrenaline was determined according to the method of Shellenberger et al. (Anal. Biochem. 39, 356/1971/), with the following modifications of the basic procedure: 0.5 ml of 0.1 molar Na-K-phosphate buffer, containing 9 g/l of EDTA-Na2, were added to 0.5 ml of the eluate, and the catecholamines (noradrenaline in the examination of heart and spleen and noradrenaline and dopamine in the examination of the cerebrum) were oxidized with 0.1 ml of a 0.1 n iodine solution in 5% potassium iodide. After exactly 2 minutes oxidation was stopped by adding 0.25 ml of a 2.5% sodium sulfite solution in 4.4 n aqueous sodium hydroxide to the mixture. 2 minutes after the introduction of the alkaline sulfite solution 0.2 ml of concentrated acetic acid were added to the samples, upon which the pH decreased to 4.4 to 4.5 Thereafter the samples were placed for 5 minutes into a drying oven heated to 100° C., and then the samples were cooled with ice water. The fluorescency of noradrenaline was measured with an OPTON spectrophotometer at wavelengths of 380 nm (excitation) and 490 nm (emission).
as §7

dopamine-β-hydroxylase [4] = experiment: Determination of the adrenaline content of adrenal gland; assay type: in vivo, male Wistar rats; conditions: i.p., 4 hours
Description: as §1, §2, §3
Determination of the adrenaline content of adrenal gland
The adrenal glands were freed from fat and homogenized in 3.0 ml of ice-cold 0.4 n perchloric acid. The homogenized mixtures were centrifuged for 10 minutes at 0° C. with a speed of 3200 r.p.m. using a Janetzky K-70 type centrifuge. 0.05 ml samples were taken from the supernatant, and the adrenaline level was determined directly by the method of Laverty et al. (Anal. Biochem. 22, 269/1968/).
as §7

dopamine-β-hydroxylase [5] = conditions: literature, cited from earlier work
dopamine-β-hydroxylase [6] = experiment: Determination of the noradrenaline content of spleen; assay type: in vivo, male Wistar rats; conditions: i.p., 37.5 mg/kg, 4 hours
Description: as §1, §2, §3, §8, §9, §7

SMILES: CCN(CC)C(=S)SSC(=S)N(CC)CC [DS, bis(diethylthiocarbamoyl)-disulfide, reference compound]
- Brain DA (dopamine) level, percentages in relation to the controls (dopamine-β-hydroxylase [1]; 200 mg/kg, ± standard error): 111%
- Brain NA (noradrenaline) level, percentages in relation to the controls (dopamine-β-hydroxylase [1]; 200 mg/kg, ± standard error): 22.5%
- Brain DA (dopamine) level, percentages in relation to the controls (dopamine-β-hydroxylase [1]; 400 mg/kg): 112%
- Brain NA (noradrenaline) level, percentages in relation to the controls (dopamine-β-hydroxylase [1]; 400 mg/kg): 24.1%
- Brain SE (serotonine) level, percentages in relation to the controls ([2]; 200 mg/kg, ± standard error): 122%
- Brain SE (serotonine) level, percentages in relation to the controls ([2]; 400 mg/kg): 117%
- Heart NA (noradrenaline) level, percentages in relation to the controls (dopamine-β-hydroxylase [3]; 200 mg/kg, ± standard error): 98%
- Heart NA (noradrenaline) level, percentages in relation to the controls (dopamine-β-hydroxylase [3]; 400 mg/kg): 102%
- Adrenal gland AD (adrenaline) level, percentages in relation to the controls (dopamine-β-hydroxylase [4]; 200 mg/kg, ± standard error): 52%
- Adrenal gland AD (adrenaline) level, percentages in relation to the controls (dopamine-β-hydroxylase [4]; 400 mg/kg): 66%
- dopamine-β-hydroxylase inhibiting effects, in words (dopamine-β-hydroxylase [5]): strong dopamine-β-hydroxylase inhibiting effects

SMILES: c1ccc(-c2ccccn2)nc1 [2,2-D, 2,2-dipyridyl, reference compound]
- Brain DA (dopamine) level, percentages in relation to the controls (dopamine-β-hydroxylase [1]; 37.5 mg/kg): 116%
- Brain NA (noradrenaline) level, percentages in relation to the controls (dopamine-β-hydroxylase [1]; 37.5 mg/kg): 79.5%
- Brain DA (dopamine) level, percentages in relation to the controls (dopamine-β-hydroxylase [1]; 75 mg/kg): 95%
- Brain NA (noradrenaline) level, percentages in relation to the controls (dopamine-β-hydroxylase [1]; 75 mg/kg): 41.2%
- Brain SE (serotonine) level, percentages in relation to the controls ([2]; 75 mg/kg): 100%
- Heart NA (noradrenaline) level, percentages in relation to the controls (dopamine-β-hydroxylase [3]; 37.5 mg/kg): 104%
- Heart NA (noradrenaline) level, percentages in relation to the controls (dopamine-β-hydroxylase [3]; 75 mg/kg): 58%
- Spleen NA (noradrenaline) level, percentages in relation to the controls (dopamine-β-hydroxylase [6]): 100%
- Adrenal gland AD (adrenaline) level, percentages in relation to the controls (dopamine-β-hydroxylase [4]; 37.5 mg/kg): 80%
- Adrenal gland AD (adrenaline) level, percentages in relation to the controls (dopamine-β-hydroxylase [4]; 75 mg/kg): 63%
- dopamine-β-hydroxylase inhibition under in vitro conditions, in words (dopamine-β-hydroxylase [5]; in vitro): effective under in vitro conditions
